This note sets out measurements from patent publication US8927500B2, “Peptidomimetic macrocycles” (Aileron Therapeutics, Inc., priority 2012, dated 2015).

Where a SMILES comes first, the peptide text is derived from it. Bridges are numbered along the chain shown (N, C = ends). [ ]: non-standard residue; d: D form. Trp(6-Cl) = N[C@@H](Cc1c[nH]c2cc(Cl)ccc12)C(=O)O; R8 = C=CCCCCCC[C@@](C)(N)C(=O)O; Cba = N[C@@H](CC1CCC1)C(=O)O; S5 = C=CCCC[C@](C)(N)C(=O)O; Nle = CCCC[C@H](N)C(=O)O

Experiment [1] addresses MDM2 (Homo sapiens, UniProt Q00987). Put plainly: Competitive fluorescence polarization assay for MDM2. Format: binding. The conditions noted are these: competitive FP assay, MDM2; for IC50: read-out: IC50 (MDM2); for Ki: read-out: Ki (MDM2). (In general: In fluorescence polarisation assays a small probe gives low polarisation when free and higher when bound to something large.)

For experiment [2], the target named is T1, MDMX (Homo sapiens, UniProt O15151).
T1 sequence (O15151 1-125): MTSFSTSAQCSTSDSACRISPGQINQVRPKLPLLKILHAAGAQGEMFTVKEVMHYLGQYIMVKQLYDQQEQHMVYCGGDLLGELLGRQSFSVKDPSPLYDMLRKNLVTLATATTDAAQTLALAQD
The experiment in a line: Competitive fluorescence polarization assay for MDMX. Format: binding. The conditions noted are these: competitive FP assay; for IC50: read-out: IC50 (MDMX); for Ki: read-out: Ki (MDMX).

Chain of MDM2 (Q00987 1-125): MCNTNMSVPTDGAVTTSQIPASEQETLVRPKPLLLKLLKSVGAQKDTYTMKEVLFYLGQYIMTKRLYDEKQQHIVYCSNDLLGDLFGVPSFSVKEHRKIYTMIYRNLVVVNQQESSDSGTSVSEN

In general, IC50 refers to the concentration needed to halve the response being measured. One may read the Ki as a measure of affinity in units of concentration, obtained from inhibition or displacement. `CCCC[C@H](NC(=O)[C@H](C)NC(=O)[C@H](C)NC(=O)[C@]1(C)CCCC=CCCCCCC[C@@](C)(NC(=O)[C@H](Cc2ccccc2)NC(=O)[C@@H](NC(=O)[C@H](CC(C)C)NC(=O)[C@H](C)NC(C)=O)[C@@H](C)O)C(=O)N[C@@H](C)C(=O)N[C@@H](Cc2ccc(O)cc2)C(=O)N[C@@H](Cc2c[nH]c3ccccc23)C(=O)N[C@@H](C)C(=O)N[C@@H](CCC(N)=O)C(=O)N[C@@H](CC(C)C)C(=O)N1)C(=O)N[C@@H](C)C(=O)N[C@@H](C)C(N)=O` [compound 321]: the IC50 in experiment [1] was 0.01 to 0.1 µM; in experiment [2] it was 0.1 to 1 µM. The Ki in experiment [1] is less than 0.01 µM; in experiment [2], 0.01 to 0.1 µM.
On to `CCCC[C@H](NC(=O)[C@H](C)NC(=O)[C@H](C)NC(=O)[C@]1(C)CCCC=CCCCCCC[C@@](C)(NC(=O)[C@H](Cc2ccccc2)NC(=O)[C@@H](NC(=O)[C@H](CC(C)C)NC(C)=O)[C@@H](C)O)C(=O)N[C@@H](C)C(=O)N[C@@H](Cc2ccc(O)cc2)C(=O)N[C@@H](Cc2c[nH]c3ccccc23)C(=O)N[C@@H](C)C(=O)N[C@@H](CCC(N)=O)C(=O)N[C@@H](CC2CCC2)C(=O)N1)C(=O)N[C@@H](C)C(=O)N[C@@H](C)C(N)=O` [compound 322] (Ac-LTF[R8]AYWAQ[Cba][S5]AA[Nle]AA-NH2; staple 4-11), for which the IC50 lay in the range of 0.01 to 0.1 µM in experiment [1] and 0.1 to 1 µM in experiment [2]. Moreover, the inhibition constant Ki in experiment [1] lay in the range of 0.01 to 0.1 µM; in experiment [2], 0.1 to 1 µM.
Consider `CCCC[C@H](NC(=O)[C@H](C)NC(=O)[C@H](C)NC(=O)[C@]1(C)CCCC=CCCCCCC[C@@](C)(NC(=O)[C@H](Cc2ccccc2)NC(=O)[C@@H](NC(=O)[C@H](CC(C)C)NC(C)=O)[C@@H](C)O)C(=O)N[C@@H](C)C(=O)N[C@@H](Cc2ccc(O)cc2)C(=O)N[C@@H](Cc2c[nH]c3ccccc23)C(=O)N[C@@H](C)C(=O)N[C@@H](CCC(N)=O)C(=O)N[C@@H](CCC(C)C)C(=O)N1)C(=O)N[C@@H](C)C(=O)N[C@@H](C)C(N)=O` [compound 323], for which the values for the IC50 in experiment [1] and in experiment [2] were 0.01 to 0.1 µM and more than 1 µM, respectively. In addition, the Ki in experiment [1] was 0.01 to 0.1 µM; in experiment [2], 0.1 to 1 µM.
Consider `CC(=O)N[C@@H](C)C(=O)N[C@@H](CC(C)C)C(=O)N[C@H](C(=O)N[C@@H](Cc1ccccc1)C(=O)N[C@]1(C)CCCCCCC=CCCC[C@@](C)(C(=O)N[C@@H](CO)C(=O)N[C@@H](C)C(=O)N[C@@H](C)C(=O)N[C@@H](C)C(N)=O)NC(=O)[C@H](CC2CCC2)NC(=O)[C@H](CCC(N)=O)NC(=O)[C@H](C)NC(=O)[C@H](Cc2c[nH]c3ccccc23)NC(=O)[C@H](Cc2ccc(O)cc2)NC(=O)[C@H](CCC(=O)O)NC1=O)[C@@H](C)O` [compound 329], for which the IC50 in experiment [1] and in experiment [2] was 0.01 to 0.1 µM in each case. Besides, the Ki was less than 0.01 µM in experiment [1] and 0.01 to 0.1 µM in experiment [2].
Consider `CC(=O)N[C@@H](Cc1ccccc1)C(=O)N[C@]1(C)CCCCCCC=CCCC[C@@](C)(C(=O)N[C@@H](C)C(=O)N[C@@H](C)C(=O)N[C@@H](C)C(=O)N[C@@H](C)C(=O)N[C@@H](C)C(=O)N[C@@H](C)C(=O)N[C@H](C)C(N)=O)NC(=O)[C@H](CC(C)C)NC(=O)[C@H](C)NC(=O)[C@H](CCC(=O)O)NC(=O)[C@H](Cc2c[nH]c3cc(Cl)ccc23)NC(=O)[C@H](Cc2ccc(O)cc2)NC(=O)[C@H](C)NC1=O` [compound 339] (Ac-F[R8]AY[Trp(6-Cl)]EAL[S5]AAAAAA[dA]-NH2; staple 2-9), for which, in experiment [1], the IC50 is less than 0.01 µM and the Ki was less than 0.01 µM. Also, in experiment [2], the IC50 lay in the range of 0.1 to 1 µM and the Ki lay in the range of 0.01 to 0.1 µM.
As for `CC(=O)N[C@@H](CCCNC(=N)N)C(=O)N[C@H](C(=O)N[C@@H](Cc1ccccc1)C(=O)N[C@]1(C)CCCCCCC=CCCC[C@@](C)(C(=O)N[C@@H](CO)C(=O)N[C@@H](C)C(=O)N[C@@H](C)C(N)=O)NC(=O)[C@H](CC2CCC2)NC(=O)[C@H](CCC(N)=O)NC(=O)[C@H](C)NC(=O)[C@H](Cc2c[nH]c3ccccc23)NC(=O)[C@H](Cc2ccc(O)cc2)NC(=O)[C@H](CCC(=O)O)NC1=O)[C@@H](C)O` [compound 360] (Ac-RTF[R8]EYWAQ[Cba][S5]SAA-NH2; staple 4-11), in experiment [1], the IC50 was less than 0.01 µM and the Ki was less than 0.01 µM. For the same molecule, in experiment [2], the IC50 is less than 0.01 µM and the inhibition constant (Ki) is less than 0.01 µM.
On to `CC(=O)N[C@@H](CC(C)C)C(=O)N[C@H](C(=O)N[C@@H](Cc1ccccc1)C(=O)N[C@]1(C)CCCCCCC=CCCC[C@@](C)(C(=O)N[C@@H](CO)C(=O)N[C@@H](C)C(=O)N[C@@H](C)C(N)=O)NC(=O)[C@H](CC2CCC2)NC(=O)[C@H](CCCNC(=N)N)NC(=O)[C@H](C)NC(=O)[C@H](Cc2c[nH]c3ccccc23)NC(=O)[C@H](Cc2ccc(O)cc2)NC(=O)[C@H](CCC(=O)O)NC1=O)[C@@H](C)O` [compound 363] (Ac-LTF[R8]EYWAR[Cba][S5]SAA-NH2; staple 4-11), for which, in experiment [1], the IC50 fell in the range of 0.01 to 0.1 µM and the inhibitory constant (Ki) is less than 0.01 µM. Also, in experiment [2], the IC50 lay in the range of 0.01 to 0.1 µM and the Ki was less than 0.01 µM.
As to `CC(=O)N[C@@H](CC(C)C)C(=O)N[C@H](C(=O)N[C@@H](Cc1ccccc1)C(=O)N[C@]1(C)CCCCCCC=CCCC[C@@](C)(C(=O)N[C@@H](CCCNC(=N)N)C(=O)N[C@@H](C)C(=O)N[C@@H](C)C(N)=O)NC(=O)[C@H](CC2CCC2)NC(=O)[C@H](CCC(N)=O)NC(=O)[C@H](C)NC(=O)[C@H](Cc2c[nH]c3ccccc23)NC(=O)[C@H](Cc2ccc(O)cc2)NC(=O)[C@H](CCC(=O)O)NC1=O)[C@@H](C)O` [compound 364] (Ac-LTF[R8]EYWAQ[Cba][S5]RAA-NH2; staple 4-11), in experiment [1], the IC50 is 0.01 to 0.1 µM and the Ki was less than 0.01 µM. Further, in experiment [2], the 50% inhibitory concentration (IC50) was in the range of 0.01 to 0.1 µM and the Ki is less than 0.01 µM.
For the molecule `CC(=O)N[C@@H](CC(C)C)C(=O)N[C@H](C(=O)N[C@@H](Cc1ccccc1)C(=O)N[C@]1(C)CCCCCCC=CCCC[C@@](C)(C(=O)N[C@@H](CO)C(=O)N[C@@H](CCCNC(=N)N)C(=O)N[C@@H](C)C(N)=O)NC(=O)[C@H](CC2CCC2)NC(=O)[C@H](CCC(N)=O)NC(=O)[C@H](C)NC(=O)[C@H](Cc2c[nH]c3ccccc23)NC(=O)[C@H](Cc2ccc(O)cc2)NC(=O)[C@H](CCC(=O)O)NC1=O)[C@@H](C)O` [compound 365] (Ac-LTF[R8]EYWAQ[Cba][S5]SRA-NH2; staple 4-11), in experiment [1], the IC50 lay in the range of 0.01 to 0.1 µM and the Ki is less than 0.01 µM. For the same molecule, in experiment [2], the IC50 is 0.01 to 0.1 µM and the Ki is less than 0.01 µM.
Consider `CC(=O)N[C@@H](CC(C)C)C(=O)N[C@H](C(=O)N[C@@H](Cc1ccccc1)C(=O)N[C@]1(C)CCCCCCC=CCCC[C@@](C)(C(=O)N[C@@H](CO)C(=O)N[C@@H](C)C(=O)N[C@@H](CCCNC(=N)N)C(N)=O)NC(=O)[C@H](CC2CCC2)NC(=O)[C@H](CCC(N)=O)NC(=O)[C@H](C)NC(=O)[C@H](Cc2c[nH]c3ccccc23)NC(=O)[C@H](Cc2ccc(O)cc2)NC(=O)[C@H](CCC(=O)O)NC1=O)[C@@H](C)O` [compound 366] (Ac-LTF[R8]EYWAQ[Cba][S5]SAR-NH2; staple 4-11), for which the IC50 in experiment [1] and in experiment [2] was 0.01 to 0.1 µM throughout. Besides, the Ki in experiment [1] is less than 0.01 µM; in experiment [2], 0.01 to 0.1 µM.
